# Measured values as given in patent US12129237B2, “Substituted diaminocarboxamide and diaminocarbonitrile pyrimidines, compositions thereof, and methods of treatment therewith” (SIGNAL PHARMACEUTICALS, LLC, priority 2011, dated 2024).
# Biological target: T1, JNK1 (Homo sapiens, UniProt P45983)
# T1 construct: purchased Carna Biosciences
# Assay: JNK1 biochemical assays (one or more of: time resolved fluorescence, Z'-LYTE Cascade, radioactive)
# Settings: one or more of the JNK1 biochemical assays; read-out: Act. Level (JNK1 IC50 activity level)
# T1 sequence (P45983 whole entry): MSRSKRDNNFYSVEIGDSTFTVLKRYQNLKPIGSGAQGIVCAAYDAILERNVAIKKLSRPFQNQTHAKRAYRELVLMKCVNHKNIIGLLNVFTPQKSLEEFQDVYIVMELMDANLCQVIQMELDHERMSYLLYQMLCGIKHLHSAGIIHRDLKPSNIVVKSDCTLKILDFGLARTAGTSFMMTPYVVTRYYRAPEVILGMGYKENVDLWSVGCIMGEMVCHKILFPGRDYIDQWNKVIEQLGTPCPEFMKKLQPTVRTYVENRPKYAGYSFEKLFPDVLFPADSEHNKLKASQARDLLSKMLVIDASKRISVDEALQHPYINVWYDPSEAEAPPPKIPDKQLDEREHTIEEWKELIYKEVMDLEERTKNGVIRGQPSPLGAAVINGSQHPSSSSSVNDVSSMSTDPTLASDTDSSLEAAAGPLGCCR
row,Compound,IC50 [nM]
1,"CO[C@H]1CC[C@H](Nc2ncc(C(N)=O)c(NC(C)(C)C3CC3)n2)CC1 [Example 315, 4-(2-cyclopropylpropan-2-ylamino)-2-((1r,4r)-4-methoxycyclohexylamino)pyrimidine-5-carboxamide]",< 200
2,"CC(C)(Nc1nc(N[C@H]2CC[C@H](O)CC2)ncc1C(N)=O)C1CC1 [Example 316, 4-(2-cyclopropylpropan-2-ylamino)-2-((1r,4r)-4-hydroxycyclohexylamino)pyrimidine-5-carboxamide]",< 200
3,"CC(C)(C)Nc1nc(NC2CCOCC2)ncc1C(N)=O [Example 317, 4-(tert-butylamino)-2-(tetrahydro-2H-pyran-4-ylamino)pyrimidine-5-carboxamide]",< 200
4,"CC(C)(C)Nc1nc(NC2CCC(F)(F)CC2)ncc1C(N)=O [Example 318, 4-(tert-butylamino)-2-(4,4-difluorocyclohexylamino)pyrimidine-5-carboxamide]",< 200
5,"CC(C)(C)Nc1nc(N[C@H]2CC[C@H](OC(F)F)CC2)ncc1C(N)=O [Example 319, 4-(tert-butylamino)-2-((1r,4r)-4-(difluoromethoxy)cyclohexylamino)pyrimidine-5-carboxamide]",< 200
6,"C[C@]1(O)CCCC(Nc2nc(NC34CCC(F)(CC3)CC4)ncc2C(N)=O)C1 (stereo partly drawn) [Example 321, 2-(4-fluorobicyclo[2.2.2]octan-1-ylamino)-4-((3S)-3-hydroxy-3-methylcyclohexylamino)pyrimidine-5-carboxamide]",< 200
7,"CC1(Nc2nc(N[C@H]3CC[C@H](O)CC3)ncc2C(N)=O)CCCC1 [Example 322, 2-((1r,4r)-4-hydroxycyclohexylamino)-4-(1-methylcyclopentylamino)pyrimidine-5-carboxamide]",< 200
8,"CC(C)(C)Nc1ncc(C(N)=O)c(N[C@H]2CCC(C)(C)[C@@H](O)C2)n1 [Example 323, 2-(tert-butylamino)-4-((1S,3S)-3-hydroxy-4,4-dimethylcyclohexylamino)pyrimidine-5-carboxamide]",200 to 800
9,"CC(C)(C)Nc1ncc(C(N)=O)c(N[C@@H]2CCC(C)(C)[C@H](O)C2)n1 [Example 324, 2-(tert-butylamino)-4-((1R,3R)-3-hydroxy-4,4-dimethylcyclohexylamino)pyrimidine-5-carboxamide]",< 200
10,"C[C@H]1C[C@H](Nc2nc(N[C@H]3CC[C@H](O)CC3)ncc2C(N)=O)C1 [Example 325, 2-((1r,4r)-4-hydroxycyclohexylamino)-4-((1r,3r)-3-methylcyclobutylamino)pyrimidine-5-carboxamide]",< 200
11,"CCO[C@H]1CC[C@H](Nc2ncc(C(N)=O)c(N[C@H]3C[C@@H](C)C3)n2)CC1 [Example 326, 2-((1r,4r)-4-ethoxycyclohexylamino)-4-((1s,3s)-3-methylcyclobutylamino)pyrimidine-5-carboxamide]",< 200
12,"C[C@H]1C[C@@H](Nc2nc(N[C@H]3CC[C@H](O)CC3)ncc2C(N)=O)C1 [Example 327, 2-((1r,4r)-4-hydroxycyclohexylamino)-4-((1s,3s)-3-methylcyclobutylamino)pyrimidine-5-carboxamide]",< 200
13,"NC(=O)c1cnc(NC2CCOCC2)nc1N[C@@H]1CCC[C@H]1CO [Example 328, 4-((1R,2R)-2-(hydroxymethyl)cyclopentylamino)-2-(tetrahydro-2H-pyran-4-ylamino)pyrimidine-5-carboxamide]",< 200
14,"NC(=O)c1cnc(N[C@H]2CC[C@H](OC(F)F)CC2)nc1N[C@@H]1CCC[C@H]1CO [Example 329, 2-((1r,4R)-4-(difluoromethoxy)cyclohexylamino)-4-((1R,2R)-2-(hydroxymethyl)cyclopentylamino)pyrimidine-5-carboxamide]",< 200
15,"CC(C)(C)Nc1ncc(C(N)=O)c(N[C@@H]2CCC[C@H]2CO)n1 [Example 330, 2-(tert-butylamino)-4-((1R,2R)-2-(hydroxymethyl)cyclopentylamino)pyrimidine-5-carboxamide]",< 200
16,"NC(=O)c1cnc(N[C@H]2CC[C@H](OCC(F)(F)F)CC2)nc1N[C@@H]1CCC[C@H]1CO [Example 331, 4-((1R,2R)-2-(hydroxymethyl)cyclopentylamino)-2-((1r,4R)-4-(2,2,2-trifluoroethoxy)cyclohexylamino)pyrimidine-5-carboxamide]",< 200
17,"CCO[C@H]1CC[C@H](Nc2ncc(C(N)=O)c(NC(C)(C)C(C)(C)C)n2)CC1 [Example 332, 2-((1r,4r)-4-ethoxycyclohexylamino)-4-(2,3,3-trimethylbutan-2-ylamino)pyrimidine-5-carboxamide]",< 200
18,"CO[C@H]1CC[C@H](Nc2ncc(C(N)=O)c(NC(C)(C)C(C)(C)C)n2)CC1 [Example 333, 2-((1r,4r)-4-methoxycyclohexylamino)-4-(2,3,3-trimethylbutan-2-ylamino)pyrimidine-5-carboxamide]",< 200
19,"CC(C)(C)C(C)(C)Nc1nc(N[C@H]2CC[C@H](O)CC2)ncc1C(N)=O [Example 334, 2-((1r,4r)-4-hydroxycyclohexylamino)-4-(2,3,3-trimethylbutan-2-ylamino)pyrimidine-5-carboxamide]",< 200

row,Compound,IC50 [nM]
1,"NC(=O)c1cnc(NC23CCC(F)(CC2)CC3)nc1N[C@@H]1CCCC[C@H](O)C1 [Example 335, 2-(4-fluorobicyclo[2.2.2]octan-1-ylamino)-4-((1R,3S)-3-hydroxycycloheptylamino)pyrimidine-5-carboxamide]",< 200
2,"CO[C@H]1CC[C@H](Nc2ncc(C(N)=O)c(N[C@H]3C[C@H](C)C3)n2)CC1 [Example 336, 2-((1r,4r)-4-methoxycyclohexylamino)-4-((1r,3r)-3-methylcyclobutylamino)pyrimidine-5-carboxamide]",< 200
3,"CO[C@H]1CC[C@H](Nc2ncc(C(N)=O)c(N[C@H]3C[C@@H](C)C3)n2)CC1 [Example 337, 2-((1r,4r)-4-methoxycyclohexylamino)-4-((1s,3s)-3-methycyclobutylamino)pyrimidine-5-carboxamide]",< 200
4,"CC(C)Nc1ncc(C(N)=O)c(N[C@@H]2CCC[C@](C)(O)C2)n1 [Example 338, 4-((1R,3S)-3-hydroxy-3-methylcyclohexylamino)-2-(isopropylamino)pyrimidine-5-carboxamide]",< 200
5,"NC(=O)c1cnc(NC2CCC2)nc1N[C@@H]1CCCC[C@H](O)C1 [Example 339, 2-(cyclobutylamino)-4-((1R,3S)-3-hydroxycycloheptylamino)pyrimidine-5-carboxamide]",< 200
6,"C[C@]1(O)CCC[C@@H](Nc2nc(NC3CCC3)ncc2C(N)=O)C1 [Example 340, 2-(cyclobutylamino)-4-((1R,3S)-3-hydroxy-3-methylcyclohexylamino)pyrimidine-5-carboxamide]",< 200
7,"NC(=O)c1cnc(NC2CCC2)nc1N[C@@H]1CCC[C@H](O)C1 [Example 341, 2-(cyclobutylamino)-4-((1R,3S)-3-hydroxycyclohexylamino)pyrimidine-5-carboxamide]",< 200
8,"CC1(C)CCC(Nc2nc(NC(C)(C)C)ncc2C(N)=O)C(O)C1 (centres unmarked) [Example 342, 2-(tert-butylamino)-4-(2-hydroxy-4,4-dimethylcyclohexylamino)pyrimidine-5-carboxamide]",200 to 800
9,"CC1(C)CCC(Nc2nc(NC(C)(C)C)ncc2C(N)=O)C(O)C1 (centres unmarked) [Example 343, 2-(tert-butylamino)-4-(2-hydroxy-4,4-dimethylcyclohexylamino)pyrimidine-5-carboxamide]",< 200
10,"CCO[C@H]1CC[C@H](Nc2ncc(C(N)=O)c(NC34CC(C3)C4)n2)CC1 [Example 344, 4-(bicyclo[1.1.1]pentan-1-ylamino)-2-((1r,4r)-4-ethoxycyclohexylamino)pyrimidine-5-carboxamide]",< 200
11,"CCC(C)(CC)Nc1ncc(C(N)=O)c(N[C@@H]2CC[C@@H](C)[C@H](O)C2)n1 [Example 345, 4-((1R,3R,4R)-3-hydroxy-4-methylcyclohexylamino)-2-(3-methylpentan-3-ylamino)pyrimidine-5-carboxamide]",< 200
12,"NC(=O)c1cnc(NC23CC(C2)C3)nc1N[C@@H]1CCCC[C@H](O)C1 [Example 346, 2-(bicyclo[1.1.1]pentan-1-ylamino)-4-((1R,3S)-3-hydroxycycloheptylamino)pyrimidine-5-carboxamide]",< 200
13,"C[C@]1(O)CCC[C@@H](Nc2nc(NC34CC(C3)C4)ncc2C(N)=O)C1 [Example 347, 2-(bicyclo[1.1.1]pentan-1-ylamino)-4-((1R,3S)-3-hydroxy-3-methylcyclohexylamino)pyrimidine-5-carboxamide]",< 200
14,"CCC(C)(C)Nc1ncc(C(N)=O)c(N[C@@H]2CCCC[C@H](O)C2)n1 [Example 349, 4-((1R,3S)-3-hydroxycycloheptylamino)-2-(tert-pentylamino)pyrimidine-5-carboxamide]",< 200
15,"CCC(C)(C)Nc1ncc(C(N)=O)c(N[C@@H]2CCC[C@](C)(O)C2)n1 [Example 350, 4-((1R,3S)-3-hydroxy-3-methylcyclohexylamino)-2-(tert-pentylamino)pyrimidine-5-carboxamide]",< 200
16,"CCC(C)(C)Nc1ncc(C(N)=O)c(N[C@@H]2CCC[C@H](O)C2)n1 [Example 351, 4-((1R,3S)-3-hydroxycyclohexylamino)-2-(tert-pentylamino)pyrimidine-5-carboxamide]",< 200
17,"CC1(Nc2ncc(C(N)=O)c(N[C@@H]3CCCC[C@H](O)C3)n2)CCC1 [Example 352, 4-((1R,3S)-3-hydroxycycloheptylamino)-2-(1-methylcyclobutylamino)pyrimidine-5-carboxamide]",< 200
18,"CC1(Nc2ncc(C(N)=O)c(N[C@@H]3CCC[C@](C)(O)C3)n2)CCC1 [Example 353, 4-((1R,3S)-3-hydroxy-3-methylcyclohexylamino)-2-(1-methylcyclobutylamino)pyrimidine-5-carboxamide]",< 200
19,"CC1(Nc2ncc(C(N)=O)c(N[C@@H]3CCC[C@H](O)C3)n2)CCC1 [Example 354, 4-((1R,3S)-3-hydroxycyclohexylamino)-2-(1-methylcyclobutylamino)pyrimidine-5-carboxamide]",< 200
